Our source for the IC50 and inhibition values is patent publication US20240083853A1, “HSD17B13 INHIBITORS AND USES THEREOF” (FL2022-001, Inc., priority 2020, published 2024).

A value given as a limit tells only on which side of the number the result lay.

This assay has as its target T1, Recombinant human HSD17B13 enzyme (Homo sapiens, UniProt Q7Z5P4).
T1 sequence (Q7Z5P4 20-300): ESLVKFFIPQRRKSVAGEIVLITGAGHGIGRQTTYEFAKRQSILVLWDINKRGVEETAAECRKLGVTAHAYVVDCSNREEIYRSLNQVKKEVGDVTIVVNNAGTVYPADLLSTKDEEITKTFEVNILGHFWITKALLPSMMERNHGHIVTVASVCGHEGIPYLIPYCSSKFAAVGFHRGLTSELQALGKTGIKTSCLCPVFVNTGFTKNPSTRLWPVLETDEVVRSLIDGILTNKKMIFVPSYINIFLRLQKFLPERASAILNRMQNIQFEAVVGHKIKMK
Put plainly: HSD17b13 NAD(P)H-Glo biochemical assay. The settings on record: for IC50: 50 uM estradiol, 1 mM NAD+, NAD(P)H-Glo luminescence, read-out: HSD17β13 IC50. The protocol:
Example B-1: HSD17b13 NAD(P)H-Glo Biochemical Assay
Recombinant human HSD17B13 enzyme. Substrate: estradiol (Sigma β-Estradiol E8875), 100 mM in DMSO. Cofactor: NAD+ Grade I free acid (Sigma 10127965001), 20 mM in H2O. Assay buffer final concentration: 20 mM Tris pH7.4 with 0.002% Tween-20 and 0.02% BSA. Assay performed in 384 well solid bottom plate (Corning 3570). Enzymatic activity detected by NAD(P)H-Glo™ Detection System (Promega G9062).
Inhibitor compounds were serially diluted in DMSO and then further diluted in assay buffer to a 10× concentration consisting of 1% DMSO.
HSD17b13 enzyme was diluted in 1× assay buffer to the desired enzyme concentration based on the specific activity of the enzyme lot. 20 uL of diluted enzyme was added to each well along with 2.5 uL of 10× inhibitor solution. Assay plate was incubated at RT for 20 minutes, and then 2.5 uL of a 10× substrate/cofactor mix was added to each well for a final concentration of 50 uM estradiol and 1 mM NAD+. Assay plate was incubated at 37° C. for 3 hours. NAD(P)H-Glo™ Detection System reagents were prepared according to manufacturer's specifications, and 25 uL was added to each well. After incubating for 1 hour at RT, luminescence was measured.

On to `CS(=O)(=O)N1CCC(c2ccc(-n3nnc4cc(F)c(O)c(F)c43)cc2)CC1` [Compound 27.9, 5,7-Difluoro-1-(4-(1-(methylsulfonyl)piperidin-4-yl)phenyl)-1H-benzo[d][1,2,3]triazol-6-ol], for which the IC50 was under 0.1 µM.

`CC1(C)CCN(c2ccc(-n3c(=O)oc4c(Br)c(F)c(O)c(F)c43)cc2)CC1` [Compound 38, 7-Bromo-3-(4-(4,4-dimethylpiperidin-1-yl)phenyl)-4,6-difluoro-5-hydroxybenzo[d]oxazol-2(3H)-one]: the half-inhibitory concentration (IC50) is under 0.1 µM. On the same count and under the same terms, as for `CS(=O)(=O)N1CCN(c2ccc(-n3ncc4cc(F)c(O)c(F)c43)cc2Cl)CC1` [Compound 19.1, 1-(3-Chloro-4-(4-(methylsulfonyl)piperazin-1-yl)phenyl)-5,7-difluoro-1H-indazol-6-ol], the figure is under 0.1 µM; as for `CC1(C)CCN(c2ccc(-n3ncc4c(C#N)c(F)c(O)cc43)cc2)CC1` [Compound 7.1, 1-(4-(4,4-Dimethylpiperidin-1-yl)phenyl)-5-fluoro-6-hydroxy-1H-indazole-4-carbonitrile], 0.1 to 1 µM; as for `COC1CCN(c2ccc(-n3ncc4cc(F)c(O)c(F)c43)cc2)C1` (stereo not shown) [Compound 22.5, 5,7-Difluoro-1-(4-(3-methoxypyrrolidin-1-yl)phenyl)-1H-indazol-6-ol], under 0.1 µM. Take `CS(=O)(=O)N1CCN(c2ccc(-n3nnc4cc(F)c(O)c(F)c43)cn2)CC1` [Compound 26.13, 5,7-Difluoro-1-(6-(4-(methylsulfonyl)piperazin-1-yl)pyridin-3-yl)-1H-benzo[d][1,2,3]triazol-6-ol]: the IC50 was in the range of 0.1 to 1 µM.

In the case of `CS(=O)(=O)N1CCN(c2ccc(-n3cnc4cc(F)c(O)c(F)c43)cc2)CC1` [Compound 21.4, 5,7-Difluoro-1-(4-(4-(methylsulfonyl)piperazin-1-yl)phenyl)-1H-benzo[d]imidazol-6-ol], the IC50 is 0.1 to 1 µM.

Consider `CS(=O)(=O)C1CN(c2ccc(-n3ncc4cc(F)c(O)c(F)c43)cc2)C1` [Compound 22.1, 5,7-Difluoro-1-(4-(3-(methylsulfonyl)azetidin-1-yl)phenyl)-1H-indazol-6-ol], for which the IC50 lay within 0.1 to 1 µM. Same read-out and setting: as for `Cc1c(O)c(F)cc2cnn(-c3ccc(N4CCC(C)(C)CC4)cc3)c12` [Compound 25.6, 1-(4-(4,4-Dimethylpiperidin-1-yl)phenyl)-5-fluoro-7-methyl-1H-indazol-6-ol], the figure is under 0.1 µM; as for `CS(=O)(=O)N1CCN(c2ccc(-n3ncc4c(C(F)(F)F)c(F)c(O)cc43)cc2)CC1` [Compound 4.1, 5-Fluoro-1-(4-(4-(methylsulfonyl)piperazin-1-yl)phenyl)-4-(trifluoromethyl)-1H-indazol-6-ol], 0.1 to 1 µM. Still for that read-out and setting: under `CC(C)N1CCC(c2ccc(-n3ncc4cc(F)c(O)c(F)c43)cc2)CC1` [Compound 27.8, 5,7-Difluoro-1-(4-(1-isopropylpiperidin-4-yl)phenyl)-1H-indazol-6-ol] stands under 0.1 µM; under `N#Cc1ccc(-c2ccc(-n3ncc4cc(F)c(O)cc43)cc2)cc1` [Compound 13.18, 4′-(5-Fluoro-6-hydroxy-1H-indazol-1-yl)-[1,1′-biphenyl]-4-carbonitrile], under 0.1 µM. On to `CC1(CO)CN(c2ccc(-n3ncc4cc(F)c(O)c(F)c43)cc2)C1` [Compound 20.16, 5,7-Difluoro-1-(4-(3-(hydroxymethyl)-3-methylazetidin-1-yl)phenyl)-1H-indazol-6-ol], for which the IC50 lay in the range of 0.1 to 1 µM.

In the case of `Oc1ccc(-c2ccc(-n3ncc4c(F)cc(O)cc43)cc2)cc1` [Compound 2.7, 4-Fluoro-1-(4′-hydroxy-[1,1′-biphenyl]-4-yl)-1H-indazol-6-ol], the IC50 lay in the range of 0.1 to 1 µM. As for `CS(=O)(=O)N1CCN(c2cnc(-n3nnc4cc(F)c(O)c(F)c43)nc2)CC1` [Compound 26.22, 5,7-Difluoro-1-(5-(4-(methylsulfonyl)piperazin-1-yl)pyrimidin-2-yl)-1H-benzo[d][1,2,3]triazol-6-ol], the inhibition at 10 µM (3 h, at 10 uM compound, read-out: HSD17β13 % at 10 uM) came to 45%. Consider `CC1(C)CCN(c2ccc(-n3nnc4c(Cl)c(F)c(O)cc43)cc2)CC1` [Compound 40.1, 4-Chloro-1-(4-(4,4-dimethylpiperidin-1-yl)phenyl)-5-fluoro-1H-benzo[d][1,2,3]triazol-6-ol], for which the IC50 was under 0.1 µM. Same read-out and setting: under `COC1CCN(c2ccc(-n3ncc4cc(F)c(O)c(F)c43)cc2)CC1` [Compound 22.4, 5,7-Difluoro-1-(4-(4-methoxypiperidin-1-yl)phenyl)-1H-indazol-6-ol] stands under 0.1 µM; under `CS(=O)(=O)N1C2CC1CN(c1ccc(-n3ncc4cc(F)c(O)c(F)c43)cc1)C2` [Compound 23.15, 5,7-Difluoro-1-(4-(6-(methylsulfonyl)-3,6-diazabicyclo[3.1.1]heptan-3-yl)phenyl)-1H-indazol-6-ol], 0.1 to 1 µM. Same read-out and setting: as for `CC1(C)CCN(c2ncc(-n3nnc4cc(F)c(O)c(F)c43)cn2)CC1` [Compound 42, 1-(2-(4,4-Dimethylpiperidin-1-yl)pyrimidin-5-yl)-5,7-difluoro-1H-benzo[d][1,2,3]triazol-6-ol], the figure is under 0.1 µM.

`CS(=O)(=O)N1CCN(c2ccc(-n3ncc4c(Cl)c(F)c(O)cc43)cc2)CC1` [Compound 5.1, 4-Chloro-5-fluoro-1-(4-(4-(methylsulfonyl)piperazin-1-yl)phenyl)-1H-indazol-6-ol]: the IC50 was 0.1 to 1 µM. Regarding `Oc1c(F)cc2cnn(-c3ccc(N4CCCCC4)cc3)c2c1F` [Compound 23.2, 5,7-Difluoro-1-(4-(piperidin-1-yl)phenyl)-1H-indazol-6-ol], the 50% inhibitory concentration (IC50) is under 0.1 µM. Same read-out and setting: as for `CCS(=O)(=O)N1CCN(c2ccc(-n3ncc4cc(F)c(O)c(F)c43)cc2)CC1` [Compound 23.8, 1-(4-(4-(Ethylsulfonyl)piperazin-1-yl)phenyl)-5,7-difluoro-1H-indazol-6-ol], the figure is 0.1 to 1 µM; as for `CC1(C(F)(F)F)CCN(c2ccc(-n3ncc4cc(F)c(O)c(F)c43)cc2)CC1` [Compound 24.8, 5,7-Difluoro-1-(4-(4-methyl-4-(trifluoromethyl)piperidin-1-yl)phenyl)-1H-indazol-6-ol], under 0.1 µM; as for `Oc1c(F)cc2nnn(-c3ccc(N4CC5(CCOCC5)C4)nc3)c2c1F` [Compound 26.12, 1-(6-(7-Oxa-2-azaspiro[3.5]nonan-2-yl)pyridin-3-yl)-5,7-difluoro-1H-benzo[d][1,2,3]triazol-6-ol], 0.1 to 1 µM. For `C[C@@H]1CN(c2ccc(-n3ncc4cc(F)c(O)c(F)c43)cc2)C[C@@H](C)O1` [Compound 24.10, 1-(4-((2R,6R)-2,6-Dimethylmorpholino)phenyl)-5,7-difluoro-1H-indazol-6-ol], the IC50 is under 0.1 µM.

For the molecule `Oc1c(F)cc2cnn(-c3ccc(N4CCC5(CC4)CC5)cc3)c2c1F` [Compound 23.23, 1-(4-(6-Azaspiro[2.5]octan-6-yl)phenyl)-5,7-difluoro-1H-indazol-6-ol], the IC50 was under 0.1 µM. On the same count and under the same terms, as for `CC1(C)CCN(c2ccc(-n3[nH]c(=O)c4cc(F)c(O)c(F)c43)cc2)CC1` [Compound 36, 1-(4-(4,4-Dimethylpiperidin-1-yl)phenyl)-5,7-difluoro-6-hydroxy-1H-indazol-3(2H)-one], the figure is 0.1 to 1 µM; as for `CC1(C)CCN(c2ccc(-n3c(=O)n(CO)c4cc(F)c(O)c(F)c43)cc2)CC1` [Compound 21.12, 3-(4-(4,4-Dimethylpiperidin-1-yl)phenyl)-4,6-difluoro-5-hydroxy-1-(hydroxymethyl)-1H-benzo[d]imidazol-2(3H)-one], under 0.1 µM.
